Test results reported in ChEMBL document CHEMBL3352576, “Synthesis and antitumor activities of novel hybrid molecules containing 1,3,4-oxadiazole and 1,3,4-thiadiazole bearing Schiff base moiety” (Bioorg Med Chem Lett, 2014).

Legend:
Assay type in all cases: functional, cell-based
[1] = Antiproliferative activity against human SMMC7721 cells assessed as inhibition of cell proliferation by CCK8 assay; conditions: SMMC-7721
MCF7 = test: Antiproliferative activity against human MCF7 cells assessed as inhibition of cell proliferation by CCK8 assay
A549 = test: Antiproliferative activity against human A549 cells assessed as inhibition of cell proliferation by CCK8 assay

Row | Compound | IC50 [1] [µM] | IC50 (MCF7) [µM] | IC50 (A549) [µM]
1 | Oc1ccccc1/C=N/c1nnc(SCc2nnc(-c3ccc(Cl)cc3)o2)s1 | 2.84 | 7.55 | 30.1
2 | Oc1ccccc1/C=N/c1nnc(SCc2nnc(-c3ccc(Br)cc3)o2)s1 | 18 | 8.32 | 20
3 | Oc1ccccc1/C=N/c1nnc(SCc2nnc(-c3ccccc3Br)o2)s1 | 6.78 | 9.14 | 7.15
4 | Oc1ccccc1/C=N/c1nnc(SCc2nnc(-c3ccc(F)cc3)o2)s1 | 13.1 | 15.6 | 20.1
5 | O=[N+]([O-])c1cccc(-c2nnc(CSc3nnc(/N=C/c4ccccc4O)s3)o2)c1 | 15.7 | 13.9 | 36.9
6 | Cc1cccc(-c2nnc(CSc3nnc(/N=C/c4ccccc4O)s3)o2)c1 | 4.55 | 11.6 | 24.3
7 | Oc1ccccc1/C=N/c1nnc(SCc2nnc(-c3ccccc3)o2)s1 | 7.1 | 9.76 | 4.11
8 | COc1ccc(-c2nnc(CSc3nnc(/N=C/c4ccccc4O)s3)o2)cc1 | 10 | 4.56 | 20.3
9 | Cc1ccccc1-c1nnc(CSc2nnc(/N=C/c3ccccc3O)s2)o1 | 15.5 | 9.36 | 7.85
10 | O=[N+]([O-])c1ccc(-c2nnc(CSc3nnc(/N=C/c4ccccc4O)s3)o2)cc1 | 16.9 | 4.25 | 4.13
11 | Oc1ccccc1/C=N/c1nnc(SCc2nnc(-c3ccccc3Cl)o2)s1 | 31.8 | 18.1 | 18.1
12 | O=c1[nH]cc(F)c(=O)[nH]1 [FLUOROURACIL] | 5.62 | – | 8.13
13 | COc1cc(-c2nnc(CSc3nnc(/N=C/c4ccccc4O)s3)o2)cc(OC)c1OC | 7.6 | 7.95 | 6.55
14 | COc1cccc(-c2nnc(CSc3nnc(/N=C/c4ccccc4O)s3)o2)c1 | 4.34 | 22 | 8.82
15 | Cc1ccc(-c2nnc(CSc3nnc(/N=C/c4ccccc4O)s3)o2)cc1 | 37.1 | 8.75 | 22
